From patent publication US20080234299A1, “Quinazolinones” (MERCK PATENT GMBH, priority 2005, published 2008)

Test system: cells
Test: cell cycle experiments (G2/M)
Assay type: cell-based

**Q.** How did the “effect on cell cycle” value turn out when `N=C(N)c1ccc(OCCCCCOc2ccc(C(=N)N)cc2)cc1` [pentamidine] was run?
**A.** maintain cells in the G2/M cell cycle
